What was measured:
[1] = tested on: phosphohistone H3 levels in drug-resistant MCF7-ADR human breast tumour cells; experiment: In vitro drug-resistant cell phenotype and substrate phosphorylation assay (MCF7-ADR); type: cell-based; conditions: NCI/ADR-RES, 24 hours of treatment, read-out: EC50 for inhibition of phosphohistone H3 levels
Protocol: (d) In Vitro Drug-Resistant Cell Phenotype and Substrate Phosphorylation Assay.
This assay is used to determine the cellular effects of compounds on drug-resistant MCF7-ADR human breast tumour cells in vitro.
Compounds typically cause inhibition of levels of phosphohistone H3 and an increase in the nuclear area of treated cells.
0.8×10^4 MCF7-ADR cells per well were plated in 100 μl DMEM media (containing 10% FCS (foetal calf serum) and 1% glutamine) in costar 96 well plates and left overnight at 37° C. and 5% CO2 to adhere.
All other procedures are identical to those for the above assay using SW620 cells.
The compounds of the invention generally have EC50 values for inhibition of phosphohistone H3 levels of […], particularly 0.5 nM to 1 μM and more particularly 0.5 nM to 0.5 μM.

aurora B kinase = aurora B kinase (Homo sapiens, UniProt Q96GD4); experiment: In vitro aurora B kinase inhibition test; type: biochemical; conditions: aurora B-INCENP enzyme; 33P-ATP filter assay, 60 minutes; read-out: IC50 (50% inhibition of enzyme activity), aurora B
Source text: (b) In Vitro Aurora B Kinase Inhibition Test
This assay determines the ability of a test compound to inhibit serine-threonine kinase activity. DNA encoding aurora B may be obtained by total gene synthesis or by cloning. This DNA may then be expressed in a suitable expression system to obtain polypeptide with serine-threonine kinase activity. In the case of aurora B, the coding sequence was isolated from cDNA by polymerase chain reaction (PCR) and cloned into the pFastBac system in a manner similar to that described above for aurora A (i.e. to direct expression of a 6-histidine tagged aurora B protein).
For the large scale expression of aurora B kinase activity, Sf21 insect cells were grown at 28° C. in TC100 medium supplemented with 10% foetal calf serum (Viralex) and 0.2% F68 Pluronic (Sigma) on a Wheaton roller rig at 3 r.p.m. When the cell density reached 1.2×10^6 cells ml^−1 they were infected with plaque-pure aurora B recombinant virus at a multiplicity of infection of 1 and harvested 48 hours later. All subsequent purification steps were performed at 4° C. […]

aurora B kinase, sequence (Q96GD4 whole entry): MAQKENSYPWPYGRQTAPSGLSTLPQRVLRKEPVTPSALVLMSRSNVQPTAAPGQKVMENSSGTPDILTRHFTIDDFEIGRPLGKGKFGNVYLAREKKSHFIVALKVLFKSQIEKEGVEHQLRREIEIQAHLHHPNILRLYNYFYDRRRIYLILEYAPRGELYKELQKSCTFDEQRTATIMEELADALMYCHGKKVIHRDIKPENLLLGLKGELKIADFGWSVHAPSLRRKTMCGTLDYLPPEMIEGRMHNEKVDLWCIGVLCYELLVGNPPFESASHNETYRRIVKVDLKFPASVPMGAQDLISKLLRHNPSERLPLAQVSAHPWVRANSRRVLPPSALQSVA
aurora B kinase, sequence (Q9NQS7 826-918 partner limits assumed): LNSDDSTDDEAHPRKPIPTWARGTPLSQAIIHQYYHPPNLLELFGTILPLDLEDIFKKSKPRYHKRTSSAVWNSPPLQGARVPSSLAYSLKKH

| Compound | EC50 [1] | IC50 (aurora B kinase) |
| --- | --- | --- |
| COc1cc(OC[C@H]2CCCN2)c2c(Nc3cnn(CC(=O)Nc4cccc(F)c4F)c3)ncnc2c1 [Prior art compound (I), reference compound] | 120 nM | – |
| CCOc1cc(OC[C@H]2CCCCN2)c2c(Nc3cnn(CC(=O)Nc4cccc(F)c4F)c3)ncnc2c1 [compound 1] | < 1 nM | 1.4 nM |
| COc1cc(OC[C@H]2CCCCN2)c2c(Nc3cnn(CC(=O)Nc4cccc(F)c4F)c3)ncnc2c1 [compound 2, N-(2,3-difluorophenyl)-2-[4-({7-methoxy-5-[(2R)-piperidin-2-ylmethoxy]quinazolin-4-yl}amino)-1H-pyrazol-1-yl]acetamide] | 20 nM | 1.4 nM |

— patent US20100168143A1, “QUINAZOLINE DERIVATIVES” (ASTRAZENECA AB, priority 2006, published 2010)
